Experimental data taken from ChEMBL document CHEMBL1201862, “PubChem BioAssay data set” (2004).
Activity calls are given as the source filed them.

Molecular target: T1, Heat shock factor protein 1 (Mus musculus, UniProt P38532)
T1 sequence (P38532 whole entry): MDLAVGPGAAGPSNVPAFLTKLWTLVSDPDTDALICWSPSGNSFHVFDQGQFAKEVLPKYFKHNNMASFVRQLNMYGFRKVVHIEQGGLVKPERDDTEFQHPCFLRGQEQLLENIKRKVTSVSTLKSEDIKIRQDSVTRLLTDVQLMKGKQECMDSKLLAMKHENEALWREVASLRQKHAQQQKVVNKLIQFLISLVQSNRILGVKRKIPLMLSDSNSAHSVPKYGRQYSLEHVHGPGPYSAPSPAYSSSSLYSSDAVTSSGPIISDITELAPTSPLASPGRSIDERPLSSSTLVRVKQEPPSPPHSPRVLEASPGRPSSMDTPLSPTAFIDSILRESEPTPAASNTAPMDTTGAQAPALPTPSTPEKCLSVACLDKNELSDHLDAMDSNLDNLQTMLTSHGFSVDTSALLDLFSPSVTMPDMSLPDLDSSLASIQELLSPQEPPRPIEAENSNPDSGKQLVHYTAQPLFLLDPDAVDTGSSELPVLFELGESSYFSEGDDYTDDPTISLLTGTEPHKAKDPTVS
Experiment: decrease of HSF1-responsive luciferase luminescence – cell-based, NIH3T3, dose retest, confirmation (AID 2382);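 note: NIH3T3 fibroblasts with HSF1-driven luciferase reporter stressed by proteasome inhibitor MG132; luminescence from HSF1-driven luciferase expression after 8 hours of MG132 stress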
Assay type: functional

EC50 | Compound
> 195 µM (not active) | CCCCNC(=O)C(=O)N/N=C/c1ccc(C(=O)OC)cc1

System: not listed separately
Experiment: Trypanosoma cruzi growth suppression in host cells – NIH3T3 host cells, beta-gal luminescence, confirmation (AID 2044);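 note: intracellular parasites grown in NIH/3T3 mouse fibroblasts as host cells; luminescent beta-galactosidase reporter signal from transgenic T. cruzi replicating inside host cells; inhibitors lower the luminescence signal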
Assay type: functional, cell-based

Compound | EC50
COc1ccc(C2C(Oc3ccccc3)C(=O)N2c2cc(C)ccc2C)cc1OC (stereo not drawn) | 2.24 µM (active)
O=C1c2cccc3c(Nc4ccccc4Cl)c([N+](=O)[O-])cc(c23)C(=O)N1CCO | 0.519 µM (active)
O=C(Nc1ccc(N2CCCC2)c(Cl)c1)c1ccc2c(c1)OCCO2 | 0.555 µM (active)
COCCCNCCOc1ccc(C(C)(C)c2ccccc2)cc1 | 0.611 µM (active)
Cc1ccsc1/C=C(\C(=O)c1ccc(OC(C)C)cc1)c1nc2ccccc2o1 | 1.69 µM (active)
CC(C)Cc1ccc(CN2CCCC(NC(=O)c3cnc4ccccn4c3=O)C2)cc1 (stereo not drawn) | 0.131 µM (active)
COC(=O)[C@@]12CCCCN1[C@H](c1ccc(-c3cccc(Cl)c3)c(OC)c1)[C@@H]1C(=O)N(C)C(=O)[C@@H]12 | 2.48 µM (active)
Cc1ccc(CNC(=O)CSc2nc3c(sc4ccccc43)c(=O)n2CCCN2CCCC2)cc1 | 1.5 µM (active)
CCc1ccc(OCC(=O)NC(N=C(S)Nc2ccccc2C)C(Cl)(Cl)Cl)cc1 (stereo not drawn) | 3.62 µM (active)
CC1CC(C)CN(c2ccc(C(=O)NCc3ccc4c(c3)OCO4)cc2[N+](=O)[O-])C1 (stereo not drawn) | 1.1 µM (active)
CCOC(=O)C1=C(Nc2ccccc2)CC(C)(O)C(C(=O)OCC)C1c1ccccc1 (stereo not drawn) | > 60 µM (not active)

System: not listed separately
Experiment: NIH3T3 cell viability loss – ATP luminescence, mouse fibroblasts, counter-screen, dose response (AID 2010);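 note: cells exposed to compound for about 90 hours before reading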
Assay type: functional, cell-based

Compound | EC50
COc1ccc(C2C(Oc3ccccc3)C(=O)N2c2cc(C)ccc2C)cc1OC (stereo not drawn) | > 60 µM (not active)
O=C1c2cccc3c(Nc4ccccc4Cl)c([N+](=O)[O-])cc(c23)C(=O)N1CCO | > 60 µM (not active)
O=C(Nc1ccc(N2CCCC2)c(Cl)c1)c1ccc2c(c1)OCCO2 | > 30 µM (not active)
COCCCNCCOc1ccc(C(C)(C)c2ccccc2)cc1 | 7.83 µM (active)
Cc1ccsc1/C=C(\C(=O)c1ccc(OC(C)C)cc1)c1nc2ccccc2o1 | > 60 µM (inconclusive)
CC(C)Cc1ccc(CN2CCCC(NC(=O)c3cnc4ccccn4c3=O)C2)cc1 (stereo not drawn) | 26.7 µM (active)
COC(=O)[C@@]12CCCCN1[C@H](c1ccc(-c3cccc(Cl)c3)c(OC)c1)[C@@H]1C(=O)N(C)C(=O)[C@@H]12 | > 60 µM (not active)
Cc1ccc(CNC(=O)CSc2nc3c(sc4ccccc43)c(=O)n2CCCN2CCCC2)cc1 | 32.5 µM (active)
CCc1ccc(OCC(=O)NC(N=C(S)Nc2ccccc2C)C(Cl)(Cl)Cl)cc1 (stereo not drawn) | > 60 µM (not active)
CC1CC(C)CN(c2ccc(C(=O)NCc3ccc4c(c3)OCO4)cc2[N+](=O)[O-])C1 (stereo not drawn) | > 60 µM (not active)
CCOC(=O)C1=C(Nc2ccccc2)CC(C)(O)C(C(=O)OCC)C1c1ccccc1 (stereo not drawn) | > 60 µM (not active)

Molecular target: Cytochrome P450 2C19 (Homo sapiens, UniProt P33261)
Sequence (P33261 whole entry): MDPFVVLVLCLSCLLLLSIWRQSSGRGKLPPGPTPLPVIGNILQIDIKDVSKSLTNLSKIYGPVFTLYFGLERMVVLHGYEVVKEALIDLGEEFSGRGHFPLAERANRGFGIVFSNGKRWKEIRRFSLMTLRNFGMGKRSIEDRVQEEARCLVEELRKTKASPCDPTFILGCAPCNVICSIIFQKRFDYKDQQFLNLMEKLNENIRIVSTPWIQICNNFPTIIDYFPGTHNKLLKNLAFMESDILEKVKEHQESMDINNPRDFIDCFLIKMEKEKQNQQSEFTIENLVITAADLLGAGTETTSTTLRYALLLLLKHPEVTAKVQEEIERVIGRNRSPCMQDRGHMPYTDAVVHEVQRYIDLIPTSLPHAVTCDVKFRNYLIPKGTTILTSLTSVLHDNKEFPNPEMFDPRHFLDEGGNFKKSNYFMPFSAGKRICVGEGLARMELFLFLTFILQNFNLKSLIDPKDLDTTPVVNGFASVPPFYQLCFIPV
Experiment: Cytochrome panel assay with activity outcomes. Panel member name: p450-cyp2c19 Compounds with AC50 equal or less than 10 uM are considered active
Assay type: functional

AC50 | Compound
inconclusive | CCn1c(C)[n+](CCCS(=O)(=O)[O-])c2cc(Cl)c(Cl)cc21
inconclusive | O=C(CP(=O)(c1ccccc1)c1ccccc1)Nn1cnnc1

Molecular target: T2, Rac GTPase-activating protein 1 (Homo sapiens, UniProt Q9H0H5)
T2 sequence (Q9H0H5 whole entry): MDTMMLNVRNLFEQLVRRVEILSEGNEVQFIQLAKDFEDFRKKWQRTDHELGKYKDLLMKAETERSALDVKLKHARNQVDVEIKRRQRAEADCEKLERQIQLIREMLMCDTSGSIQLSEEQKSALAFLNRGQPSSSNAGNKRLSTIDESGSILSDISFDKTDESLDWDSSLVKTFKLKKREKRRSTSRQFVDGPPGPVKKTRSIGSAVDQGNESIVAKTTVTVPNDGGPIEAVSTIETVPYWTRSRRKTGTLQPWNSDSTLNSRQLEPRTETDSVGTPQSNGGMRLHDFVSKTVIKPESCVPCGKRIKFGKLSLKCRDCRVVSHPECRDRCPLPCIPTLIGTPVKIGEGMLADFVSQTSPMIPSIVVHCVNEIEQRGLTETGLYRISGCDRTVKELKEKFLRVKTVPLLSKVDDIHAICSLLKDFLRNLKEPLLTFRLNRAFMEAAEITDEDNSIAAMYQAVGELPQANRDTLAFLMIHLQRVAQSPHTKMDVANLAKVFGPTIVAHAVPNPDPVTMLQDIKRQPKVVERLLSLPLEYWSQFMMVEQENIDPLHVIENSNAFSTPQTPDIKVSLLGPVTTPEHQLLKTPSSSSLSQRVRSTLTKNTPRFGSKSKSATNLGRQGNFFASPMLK
Experiment: blockers of MgcRacGAP-driven Rac1 GTP hydrolysis – biochemical, ADP Hunter fluorescence, primary and confirmatory, confirmation (AID 624330)
Assay type: functional

IC50 | Compound
81.2 µM (active) | COc1cc(/C=C/CN2CCC(Oc3ccc(C(=O)N4CCCC4)cc3)CC2)ccc1O
131 µM (active) | CCc1ccc(NC(=O)CNCc2ccc(OC)c(OC)c2)cc1
156 µM (active) | Clc1cc(Cl)c(OCCCCn2cncn2)c(Cl)c1
72.7 µM (active) | Cc1ccc(CN2CCN(Cc3ccco3)CC2)cc1
84.9 µM (active) | COc1ccc(NC2CCCN(C(=O)c3cccc(N(C)C)c3)C2)cc1 (stereo not drawn)
32.2 µM (active) | COc1cc(/C=C/C(=O)OCC(=O)c2ccc[nH]2)ccc1O

Molecular target: Cytochrome P450 2C9 (Homo sapiens, UniProt P11712)
Sequence (P11712 whole entry): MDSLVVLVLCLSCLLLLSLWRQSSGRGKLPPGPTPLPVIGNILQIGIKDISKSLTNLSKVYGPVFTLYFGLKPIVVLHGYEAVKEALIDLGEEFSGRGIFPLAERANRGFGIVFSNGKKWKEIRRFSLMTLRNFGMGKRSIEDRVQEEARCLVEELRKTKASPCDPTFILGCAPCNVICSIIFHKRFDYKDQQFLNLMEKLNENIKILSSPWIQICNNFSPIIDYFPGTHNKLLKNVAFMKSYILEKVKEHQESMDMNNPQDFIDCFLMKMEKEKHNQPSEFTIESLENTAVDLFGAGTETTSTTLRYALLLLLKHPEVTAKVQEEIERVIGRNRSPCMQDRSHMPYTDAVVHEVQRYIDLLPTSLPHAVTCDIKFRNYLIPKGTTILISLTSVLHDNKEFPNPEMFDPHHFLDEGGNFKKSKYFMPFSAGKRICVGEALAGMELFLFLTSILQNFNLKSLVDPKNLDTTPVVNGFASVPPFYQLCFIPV

Compound | AC50
CSc1ccc(CNc2ccc(C)c(C)c2)cc1 | 14.1 µM (inconclusive)
O=C(c1ccc(N2CCCCC2)c([N+](=O)[O-])c1)N(Cc1ccccc1)c1ccccn1 | 7.94 µM (inconclusive)
Nc1ccc(-c2ccc(Nc3cc(S(=O)(=O)O)c(N)c4c3C(=O)c3ccccc3C4=O)cc2)c(S(=O)(=O)O)c1 | 6.31 µM (inconclusive)

The next lines start with the values.

AC50 | Compound
39.8 µM (inconclusive) | C[C@H](CO)NC(=O)[C@H](C)[C@@H]1C[C@@]1(C)[C@@H](NC(=O)OCc1ccccc1)c1ccccc1
20 µM (inconclusive) | O=C(c1cccc(F)c1)N1CCC[C@@]2(CCN(c3cccc(-c4ccccc4)c3)C2)C1
12.6 µM (inconclusive) | O=c1c(-c2cc(F)cc(F)c2)nc2cnc(N3CCNCC3)nc2n1Cc1ccc(F)cc1
3.55 µM (inconclusive) | NC(=O)CSc1nc2sc(-c3ccccc3)cc2c(=O)n1N
